Experiments:
[1] = Impact of dry heat sterilization on particle size of bulk roflumilast API; format: physicochemical; settings: bulk API dried at 137° C. for 20 hours
Method: The impact of dry heat sterilization on roflumilast was assessed. Bulk API of roflumilast was dried at 137° C. for 20 hours. The particle size of the roflumilast was measured. FIG. 14 provides a particle size distribution plot for the bulk API after dry heat sterilization.

[2] = as reported from the API manufacturer; cited from earlier work

O=C(Nc1c(Cl)cncc1Cl)c1ccc(OC(F)F)c(OCC2CC2)c1 [Roflumilast, N-(3,5-dichloropyrid-4-yl)-3-cyclopropylmethoxy-4-difluoromethoxybenzamide]
impact of dry heat sterilization on particle size distribution [1]: does not significantly impact the particle size distribution | D90 of the API [2]: approximately 10 μm

Reference: US20250255809A1, “OPHTHALMIC PHARMACEUTICAL COMPOSITIONS OF ROFLUMILAST” (Iolyx Therapeutics, Inc., priority 2021, published 2025)
